Reference: patent US4055640A, “Compositions and methods for controlling the growth of bacteria, fungi and algae using certain derivatives of N-(2,2-dichlorovinyl)salicylamides” (Nippon Kayaku Co., Ltd., priority 1975, dated 1977)

Assays:
[1] = system: Rhizoctonia solani (damping-off of cucumber); experiment: Exterminating test on damping-off of cucumber (Experimental Example 3); format: in vivo; conditions: soil drench 50 ml per pot, 10 days; for pest or weed control at 1000 ppm: Rhizoctonia solani, soil, 240 h, 1,000 ppm, read-out: Percentage of healthy seedlings; for Percentage of healthy seedlings: 1,000 ppm
Description: Exterminating test on damping-off of cucumber
The pots (diameter, 12 cm) were filled with field soil and then soil infected by adding Rhizoctonia solani in an amount of 5 grams per pot uniformly into the pots. Thereafter, 10 seeds of cucumber (variety: Azumamidori) were sown in each pot.
Eighty percent (80%) wettable powder of the present invention was diluted with water to obtain a suspension and each pot was drenched with the suspension in an amount of 50 milliliters. Then, the pots were transferred to the greenhouse. Fifty percent (50%) wettable powder of pentachloronitro benzene (hereinafter referred to as PCNB) on the market was used as a control and tested by the same method. After 10 days of the inoculation, degrees attacked by the pathogen were observed and a "Percentage of healthy seedlings" was calculated. The "Percentage of healthy seedlings" was calculated as follows: [formula]

[2] = system: seedling blight of rice plant (pathogen Fusarium sp. and Rhizoctonia sp.); experiment: Exterminating test on seedling blight of rice plant (Experimental Example 1); format: in vivo; conditions: for Percentage of healthy seedlings at 0.25 g/box: soil, read-out: Percentage of healthy seedlings
Description: Exterminating test on seedling blight of rice plant Nursery boxes (60 × 30 × 3 cm) were filled with soil which were contaminated with pathogen (Fusarium sp. and Rhizoctonia sp.) The dust in which the present compound was contained in a ratio of 5% by weight was added in the box in a ratio of 5 grams per box and mixed well with soil. Thereafter, seeds of rice plant (variety: Nihonbare) were sowed in drills at a rate of 0.3 liter per box and grown up in a lighting chamber at 17° C. After 7 days from the sowing, the boxes were carried out in the field. Furthermore, 10 days thereafter the observations were made. Four percent (4%) dust of 3-hydroxy-5-methyl isoxazol (hereinafter referred to as hydroxyisoxazol) on the market was used as a control and tested by the same method. The test results are shown in Table 2 with a "percentage of healthy seedlings". The percentage of healthy seedlings was calculated as follows: […]

[3] = system: Fusarium wilt of cucumber; experiment: Exterminating test on Fusarium wilt of cucumber (Experimental Example 4); format: in vivo, Fusarium oxysporum f, cucumerinum; conditions: 500 ppm, soil drench 100 ml per pot, two weeks; for pest or weed control at 500 ppm: Fusarium, soil, 336 h, read-out: Percentage of healthy seedlings
Description: Exterminating test on Fusarium wilt of cucumber Twenty (20) grams of infected soil was added uniformly into each pot which was filled with steam sterilized field soil, then 18 seeds of cucumber (variety; Tokiwazibai) were sowed in each pot. Eighty percent (80%) wettable powder of the present invention was diluted with water to obtain a suspension, and each pot was drenched with the suspension in an amount of 100 ml. Fifty percent (50%) wettable powder of methyl-1-(butylcarbamoyl) 2-benzimidazol carbamate (hereinafter referred to as Benlate) on the market was used as a control and tested by the same method. After two weeks of planting, degrees attacked by the pathogen was observed and a "percentage of healthy seedlings" was calculated as follows: [formula]

[4] = system: cucumber seedlings (variety: Sagamihanjiro); experiment: Phytotoxicity on cucumber seedlings (Experimental Example 2); format: in vivo
Description: (§1) The cucumber seeds (variety: Sagamihanjiro) were sown in pots (diameter 18 cm). Eighty percent (80%) wettable powder (contents of active compound: 80%) of the present invention was diluted with water to obtain a suspension. The suspension was sprayed over the cucumber seedlings of the stage of 3-4 leaves in an amount of 20 ml per pot. After 24 hours, these pots were inoculated by means of spray of spore suspension of Cladosporium cucumerinum. The thus-inoculated seedlings were placed in a moist chamber at 20° C for 24 hours. The pots were continuously kept in a greenhouse at 20° C. The following wettable powders on the market were used as controls.

[5] = system: Cladosporium cucumerinum (cucumber scab); experiment: Exterminating test on cucumber scab (Experimental Example 2); format: in vivo; set-up: scale not given here; conditions: 5 days after inoculation
Description: Exterminating test on cucumber scab
as §1
70% wettable powder of 1,2-bis (3-methoxy carbonyl-2-thioureid) benzene (hereinafter referred to as "thiophanate methyl") on the market.
75% wettable powder of ethylene bis (dithiocarbamic acid) manganese (hereinafter referred to as "maneb") on the market. After 5 days of the inoculation, degrees attached by the pathogen were observed and the results were shown in Table 3 with an "Infected Index". The "Infected Index" was calculated as follows: [formula] A : Number of leaves which were killed by hard attack B : Number of leaves severely attacked
C : number of leaves slightly attacked
D : number of healthy leaves

[6] = system: summer orange seedlings; experiment: Phytotoxicity on summer orange seedlings (Experimental Example 6); format: in vivo
Description: (§2) Exterminating test on citrus canker. 4-year-old summer orange seedlings, planted in unglazed pots having a diameter of 20 cm, were employed in this test. Eighty percent (80%) wettable powder of the present invention was diluted with water, and sprayed over the seedlings in an amount of 50 ml per pot. The leaves of the seedlings were inoculated Xanthomonas citri by means of a needle. After the inoculation, the seedlings were maintained in a moist chamber at 25° C for 24 hours. Then the pots were transferred into the greenhouse. Streptomycin 20% wettable powder was used as a control, and tested by the same method. After 2 weeks after the inoculation, degrees of disease attack were observed, and an "Effect Index" was calculated as follows: [formula]

[7] = system: Xanthomonas citri (citrus canker); experiment: Exterminating test on citrus canker (Experimental Example 6); format: in vivo; conditions: for pest or weed control at 1000 ppm: read-out: Effect Index, 1,000 ppm, 2 weeks after inoculation
Description: as §2

[8] = system: botrytis cinerea (gray mold); experiment: Exterminating test on gray mold of tomato (Experimental Example 5); format: in vivo; conditions: 500 ppm, 48 hours after inoculation, kidney bean leaves
Description: Exterminating test on gray mold of tomato The seedlings of kidney beans (variety: Orient) of 5-6 leaves stage were employed in this test. Eighty percent (80%) wettable powder of the present invention was diluted with water and sprayed over the seedlings in an amount of 10 ml per pot. The leaves were cut from the plant at 24 hours after spraying, and placed in the petri dishes (12 cm in diameter). Thereafter disks (5 mm in diameter) were cut with a cork borer from potato dextrose agar on which the pathogen (botrytis cinerea) was cultured. The disks were placed on the leaves. The dishes were placed in such a moistural condition as to cause the pathogen to propagate. Thiophanate methyl 70% wettable powder on the market was used as a control and tested by the same method. After forty eight (48) hours after inoculation, diameters of the lesions were observed, and an "Effect Index" was calculated as follows; [formula]

[9] = system: seedlings of kidney beans (variety: Orient); experiment: Phytotoxicity on kidney beans (Experimental Example 5); format: in vivo; conditions: 500 ppm
[10] = system: Aspergillus niger, Penicillium citrinum, Cladosporium harbarum and chaetomium globosum; experiment: Degree of growth inhibition of fungi on treated beach plates (Example 25); format: cell-based; set-up: scale not given here; conditions: numerical rating, 2 weeks
Description: The emulsifiable concentrates which were prepared by Example 20 were diluted with water 400 times and 800 times to form emulsions.
(§3) The square plates of beach of which a side was 5 cm long and thickness was 5 mm were dipped into the emulsion for 2 minutes and dried for 24 hours at room temperature.
(§4) The square plates were placed on the surface of agar plates. The suspensions which contained spores of Aspergillus niger, Penicillium citrinum, Cladosporium harbarum and chaetomium globosum were respectively sprayed on the agar plates and the square plates.
The test fungi were cultivated in the incubator at the humidity of 95% and the temperature of 28° C for 2 weeks. The degree of growth inhibition is defined in terms of the following numerical ratings.

[11] = system: Aspergillus niger, Penicillium citrinum, Cladosporium harbarum and chaetomium globosum; experiment: Degree of growth inhibition of fungi on treated beach plates (Example 17); format: cell-based; set-up: scale not given here; conditions: numerical rating, 2 weeks
Description: The emulsifiable concentrates which were prepared by Example 10 were diluted with water 400 times and 800 times to form emulsions.
as §3, §4
The test fungi were cultivated in the incubator at the humidity of 95% and the temperature of 28° C for 2 weeks.
The degree of growth inhibition is defined in terms of the following numerical ratings.

[12] = 408 h, 0.25g/box a.i., 5% dust mixed with soil

SMILES | pest or weed control at 1000 ppm [1] [%] | Percentage of healthy seedlings at 0.25 g/box [2, 12] [%] | pest or weed control at 500 ppm [3] [%] | also measured
COC(=O)Oc1ccccc1C(=O)NC=C(Cl)Cl [Compound No. 16, O-methoxycarbonyl-N-(2,2-dichlorovinyl) salicylamide] | 100 | 71.5 | 38.2 | 
Cc1cc(O)no1 [Hydroxyisoxazol, 3-hydroxy-5-methyl isoxazol, reference compound] |  |  |  | Percentage of healthy seedlings at 0.2 g/box ([2]; 408 h, 0.20g/box a.i., 4% dust on the market (control)): 70.6%
S=C([S-])NCCNC(=S)[S-].[Mn+2] [Maneb, ethylene bis (dithiocarbamic acid) manganese, reference compound] |  |  |  | Phytotoxicity ([4]; 1,500 ppm): Nil; Infected Index ([5]; 1,500 ppm): 12.5
[H]/N=C(/N)N[C@H]1[C@H](O)[C@@H](O)[C@H](O[C@@H]2O[C@@H](C)[C@](O)(C=O)[C@H]2O[C@@H]2O[C@@H](CO)[C@H](O)[C@@H](O)[C@@H]2NC)[C@@H](N/C(N)=N\[H])[C@@H]1O [Streptomycin, reference compound] |  |  |  | Phytotoxicity ([6]; 200 ppm): Nil; pest or weed control at 200 ppm ([7]; Xanthomonas citri, 336 h, read-out: Effect Index, 200 ppm, 2 weeks after inoculation): 28.7%
COC(=O)NC(=S)Nc1ccccc1NC(=S)NC(=O)OC [Thiophanate methyl, 1,2-bis (3-methoxy carbonyl-2-thioureid) benzene, reference compound] |  |  |  | Effect Index [8]: 82; Phytotoxicity [9]: Nil; Phytotoxicity ([4]; 500 ppm): Nil; Infected Index ([5]; 500 ppm): 14.6
O=C(NC=C(Cl)Cl)c1cc(Br)ccc1O [compound 3] | 70 | 65.3 | 62.4 | Phytotoxicity ([6]; 1,000 ppm): Nil
Cc1cccc(C(=O)NC=C(Cl)Cl)c1O [compound 4] | 90 | 76.6 | 68.7 | 
Cc1ccc(C(=O)NC=C(Cl)Cl)c(O)c1 [compound 5] | 80 | 62 | 58.9 | Phytotoxicity ([6]; 1,000 ppm): Nil; pest or weed control at 1000 ppm ([7]; Xanthomonas citri, 336 h): 98.2%; Phytotoxicity ([4]; 500 ppm): Nil; Infected Index ([5]; 500 ppm): 10.7
CC(=O)Oc1ccc(Br)cc1C(=O)NC=C(Cl)Cl [compound 8] | 75 | 71.3 | 73.3 | Degree of growth inhibition ([10]; 0.0125 %): 3; Degree of growth inhibition ([10]; 0.025 %): 3
CCCCCCCCCCCC(=O)Oc1ccccc1C(=O)NC=C(Cl)Cl [compound 12] | 70 | 65 | 53.4 | 
O=C(NC=C(Cl)Cl)c1ccccc1OC(=O)C(Cl)Cl [compound 14] | 95 | 70.8 | 62.8 | Phytotoxicity ([6]; 1,000 ppm): Nil; pest or weed control at 1000 ppm ([7]; Xanthomonas citri, 336 h): 73.2%; Phytotoxicity ([4]; 500 ppm): Nil; Infected Index ([5]; 500 ppm): 7.9
COc1ccccc1C(=O)NC=C(Cl)Cl [compound 15] | 60 | 70.2 | 51.2 | Phytotoxicity ([4]; 500 ppm): Nil; Infected Index ([5]; 500 ppm): 8.9
CC(C)COC(=O)Oc1ccccc1C(=O)NC=C(Cl)Cl [compound 18] | 100 | 72.1 | 42 | Degree of growth inhibition ([10]; 0.0125 %): 2; Degree of growth inhibition ([10]; 0.025 %): 3
O=C(NC=C(Cl)Cl)c1cc(Br)ccc1O [compound 22] |  |  |  | Phytotoxicity ([6]; 1,000 ppm): Nil
O=C(NC=C(Cl)Cl)c1cc(Br)ccc1[O-].O=C(NC=C(Cl)Cl)c1cc(Br)ccc1[O-].[Cu+2] [compound 27] |  |  |  | Percentage of healthy seedlings [1]: 85%; Percentage of healthy seedlings [3]: 58.0%
O=C(NC=C(Cl)Cl)c1ccccc1[O-].O=C(NC=C(Cl)Cl)c1ccccc1[O-].[Mn+2] [compound 28] |  |  |  | Degree of growth inhibition ([11]; 0.0125 %): 3; Degree of growth inhibition ([11]; 0.025 %): 3; Percentage of healthy seedlings [1]: 100%; Percentage of healthy seedlings ([2]; 0.25g/box a.i., 5% dust mixed with soil): 73.0%; Phytotoxicity ([6]; 1,000 ppm): Nil; Effect Index ([7]; 1,000 ppm, 2 weeks after inoculation): 73.6; Percentage of healthy seedlings [3]: 57.0%
O=C(NC=C(Cl)Cl)c1cccc([N+](=O)[O-])c1O [compound 31] | 85 | 70.2 | 46 | 
CC(=O)Oc1c(Cl)cc(Cl)cc1C(=O)NC=C(Cl)Cl [compound 32] | 75 | 69.8 | 73 | 
O=C(NC=C(Cl)Cl)c1cc(Cl)cc(Cl)c1O [compound 33] |  | 70.4 | 48 | 
CC(=O)Oc1c(C(=O)NC=C(Cl)Cl)cccc1[N+](=O)[O-] [compound 35] | 95 | 71.2 | 79 | 
